According to patent publication US12162840B2, “Herbicidal compositions” (SYNGENTA PARTICIPATIONS AG, priority 2018, dated 2024):

System: warm season plant species
Assay: B2 Post-emergence efficacy Test 2, warm season plant species
Type: in vivo
Conditions: 15 days after application, 0-100 scale, 0=no damage, 100=total kill; for Herbicidal activity, ABUTH: Abutilon theophrasti; for Herbicidal activity, AMARE: Amaranthus retroflexus; for Herbicidal activity, BIDPI: Bidens pilosa; for Herbicidal activity, BRAPL: Brachiaria plantaginea; for Herbicidal activity, DIGSA: Digitaria sanguinalis; for Herbicidal activity, ECHCG: Echinochloa crus galli; for Herbicidal activity, ELEIN: Eleisine indica; for Herbicidal activity, EPHHL: Euphorbia hetrophylla; for Herbicidal activity, GLXMA: Glycine max; for Herbicidal activity, IPOHE: Ipomoea hederacea; for Herbicidal activity, ORYSA: Orysa sativa; for Herbicidal activity, PANMI: Panicum miliaceum; for Herbicidal activity, SETFA: Setaria faberi; for Herbicidal activity, SIDSP: Sida spinosa; for Herbicidal activity, SORVU: Sorghum bicolour; for Herbicidal activity, XANST: Xanthium strumarium; for Herbicidal activity, ZEAMX: Zea mays
Outline: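 Herbicidal effect rated visually 0 (no damage) to 100 (complete kill) at 15 days post-treatment. Post-emergence spray at 12 days used an IF50 formulation with 0.2% v/v Genapol XO80 adjuvant; glasshouse 24/18 or 20/16 °C, 16 h light, 65% humidity.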

Cc1nn(C)c(=O)c(-c2c(F)ccc(Cl)c2CCc2ccc(Cl)cc2)c1OC(=O)C(C)C [Compound 1.089]
Herbicidal activity, ABUTH (15 g/Ha): 70 | Herbicidal activity, ABUTH (30 g/Ha): 90 | Herbicidal activity, ABUTH (60 g/Ha): 100 | Herbicidal activity, ABUTH (125 g/Ha): 100 | Herbicidal activity, ABUTH (250 g/Ha): 100 | Herbicidal activity, ABUTH (500 g/Ha): 100 | Herbicidal activity, AMARE (15 g/Ha): 80 | Herbicidal activity, AMARE (30 g/Ha): 80 | Herbicidal activity, AMARE (60 g/Ha): 90 | Herbicidal activity, AMARE (125 g/Ha): 100 | Herbicidal activity, AMARE (250 g/Ha): 100 | Herbicidal activity, AMARE (500 g/Ha): 100 | Herbicidal activity, BIDPI (15 g/Ha): 70 | Herbicidal activity, BIDPI (30 g/Ha): 60 | Herbicidal activity, BIDPI (60 g/Ha): 70 | Herbicidal activity, BIDPI (125 g/Ha): 80 | Herbicidal activity, BIDPI (250 g/Ha): 80 | Herbicidal activity, BIDPI (500 g/Ha): 100 | Herbicidal activity, BRAPL (15 g/Ha): 80 | Herbicidal activity, BRAPL (30 g/Ha): 90 | Herbicidal activity, BRAPL (250 g/Ha): 90 | Herbicidal activity, BRAPL (500 g/Ha): 90 | Herbicidal activity, DIGSA (15 g/Ha): 0 | Herbicidal activity, DIGSA (30 g/Ha): 0 | Herbicidal activity, DIGSA (60 g/Ha): 0 | Herbicidal activity, DIGSA (125 g/Ha): 10 | Herbicidal activity, DIGSA (250 g/Ha): 40 | Herbicidal activity, DIGSA (500 g/Ha): 30 | Herbicidal activity, ECHCG (15 g/Ha): 80 | Herbicidal activity, ECHCG (30 g/Ha): 80 | Herbicidal activity, ECHCG (60 g/Ha): 80 | Herbicidal activity, ECHCG (125 g/Ha): 90 | Herbicidal activity, ECHCG (250 g/Ha): 90 | Herbicidal activity, ECHCG (500 g/Ha): 100 | Herbicidal activity, ELEIN (15 g/Ha): 0 | Herbicidal activity, ELEIN (30 g/Ha): 0 | Herbicidal activity, ELEIN (60 g/Ha): 70 | Herbicidal activity, ELEIN (125 g/Ha): 80 | Herbicidal activity, ELEIN (250 g/Ha): 90 | Herbicidal activity, ELEIN (500 g/Ha): 90 | Herbicidal activity, EPHHL (15 g/Ha): 80 | Herbicidal activity, EPHHL (30 g/Ha): 100 | Herbicidal activity, EPHHL (60 g/Ha): 100 | Herbicidal activity, EPHHL (125 g/Ha): 100 | Herbicidal activity, EPHHL (250 g/Ha): 100 | Herbicidal activity, EPHHL (500 g/Ha): 100 | Herbicidal activity, GLXMA (30 g/Ha): 70 | Herbicidal activity, GLXMA (60 g/Ha): 80 | Herbicidal activity, GLXMA (250 g/Ha): 100 | Herbicidal activity, GLXMA (500 g/Ha): 100 | Herbicidal activity, IPOHE (15 g/Ha): 100 | Herbicidal activity, IPOHE (30 g/Ha): 100 | Herbicidal activity, IPOHE (60 g/Ha): 100 | Herbicidal activity, IPOHE (125 g/Ha): 100 | Herbicidal activity, IPOHE (250 g/Ha): 100 | Herbicidal activity, IPOHE (500 g/Ha): 100 | Herbicidal activity, ORYSA (15 g/Ha): 0 | Herbicidal activity, ORYSA (30 g/Ha): 0 | Herbicidal activity, ORYSA (60 g/Ha): 0 | Herbicidal activity, ORYSA (125 g/Ha): 10 | Herbicidal activity, ORYSA (250 g/Ha): 20 | Herbicidal activity, ORYSA (500 g/Ha): 50 | Herbicidal activity, PANMI (15 g/Ha): 0 | Herbicidal activity, PANMI (30 g/Ha): 20 | Herbicidal activity, PANMI (60 g/Ha): 50 | Herbicidal activity, PANMI (125 g/Ha): 60 | Herbicidal activity, PANMI (250 g/Ha): 80 | Herbicidal activity, PANMI (500 g/Ha): 90 | Herbicidal activity, SETFA (15 g/Ha): 0 | Herbicidal activity, SETFA (30 g/Ha): 20 | Herbicidal activity, SETFA (60 g/Ha): 30 | Herbicidal activity, SETFA (125 g/Ha): 60 | Herbicidal activity, SETFA (250 g/Ha): 60 | Herbicidal activity, SETFA (500 g/Ha): 80 | Herbicidal activity, SIDSP (30 g/Ha): 80 | Herbicidal activity, SIDSP (60 g/Ha): 90 | Herbicidal activity, SIDSP (125 g/Ha): 100 | Herbicidal activity, SIDSP (250 g/Ha): 100 | Herbicidal activity, SIDSP (500 g/Ha): 100 | Herbicidal activity, SORVU (15 g/Ha): 0 | Herbicidal activity, SORVU (30 g/Ha): 60 | Herbicidal activity, SORVU (60 g/Ha): 70 | Herbicidal activity, SORVU (125 g/Ha): 90 | Herbicidal activity, SORVU (250 g/Ha): 90 | Herbicidal activity, SORVU (500 g/Ha): 90 | Herbicidal activity, XANST (30 g/Ha): 90 | Herbicidal activity, XANST (60 g/Ha): 80 | Herbicidal activity, XANST (125 g/Ha): 90 | Herbicidal activity, XANST (250 g/Ha): 90 | Herbicidal activity, XANST (500 g/Ha): 100 | Herbicidal activity, ZEAMX (15 g/Ha): 0 | Herbicidal activity, ZEAMX (30 g/Ha): 20 | Herbicidal activity, ZEAMX (60 g/Ha): 30 | Herbicidal activity, ZEAMX (125 g/Ha): 30 | Herbicidal activity, ZEAMX (250 g/Ha): 90 | Herbicidal activity, ZEAMX (500 g/Ha): 100
